Assays:
[1] = biological target: T1, Muscarinic acetylcholine receptor M1 (Homo sapiens, UniProt P11229); experiment: ChEBML_1712853
T1 sequence (P11229 whole entry): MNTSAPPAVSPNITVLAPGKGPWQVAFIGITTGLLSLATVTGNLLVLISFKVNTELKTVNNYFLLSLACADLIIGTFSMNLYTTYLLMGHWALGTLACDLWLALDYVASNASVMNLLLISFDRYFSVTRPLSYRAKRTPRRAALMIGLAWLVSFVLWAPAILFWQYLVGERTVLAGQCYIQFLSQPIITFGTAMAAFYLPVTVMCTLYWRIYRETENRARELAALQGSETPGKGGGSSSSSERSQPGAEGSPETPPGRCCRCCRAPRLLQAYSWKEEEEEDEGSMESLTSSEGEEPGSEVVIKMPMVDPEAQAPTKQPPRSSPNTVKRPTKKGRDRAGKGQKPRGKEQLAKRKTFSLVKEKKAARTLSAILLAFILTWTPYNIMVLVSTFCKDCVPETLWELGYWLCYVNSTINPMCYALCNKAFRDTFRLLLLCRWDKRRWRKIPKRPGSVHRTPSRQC
Excerpt: Positive allosteric modulation of human muscarinic acetylcholine M1 receptor expressed in CHO-NFAT cells assessed as potentiation of acetylcholine-induced calcium mobilization after 4 hrs by CCF4-AM dye-based assay

[2] = biological target: T1, Muscarinic acetylcholine receptor M1; experiment: Positive allosteric modulation of human muscarinic acetylcholine M1 receptor expressed in CHO cells assessed as potentiation of acetylcholine-induced calcium mobilization

| EC50 [1] [nM] | EC50 [2] [nM] | SMILES |
| --- | --- | --- |
| 794 |  | O=C(N[C@H]1CCCC[C@@H]1O)C1CN(Cc2ccc(-n3cccn3)cc2)c2ccccc2O1 (some centres not stated) |
|  | 178 | Cn1cc(-c2ccc(CN3CC(C(=O)N[C@H]4CCCC[C@@H]4O)Oc4ccccc43)cn2)cn1 (some centres not stated) |

Source: BindingDB's records for doi:10.1016/j.bmcl.2018.05.009 (Vanderbilt University Medical Center, 2018)
